Assay results taken from PubChem BioAssay (NCI).
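Where inhibition never reached the appropriate level, the endpoint shown equals the highest concentration tested. Otherwise, values were interpolated linearly from a five-concentration, 48-hour dose response in 96-well plates. TGI marks complete inhibition of growth.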

Experiments:
Experiment in all cases: growth of human tumour cells (NCI), 48 h
SK-MEL-28 melanoma = tested on: SK-MEL-28 melanoma
MOLT-4 leukemia = tested on: MOLT-4 leukemia
HL-60(TB) leukemia = tested on: HL-60(TB) leukemia
OVCAR-5 ovarian = tested on: OVCAR-5 ovarian
NCI/ADR-RES ovarian = tested on: NCI/ADR-RES ovarian
SN12C renal = tested on: SN12C renal
BT-549 breast = tested on: BT-549 breast
CCRF-CEM leukemia = tested on: CCRF-CEM leukemia
SF-268 CNS = tested on: SF-268 CNS
NCI-H460 lung = tested on: NCI-H460 lung
K-562 leukemia = tested on: K-562 leukemia
HS 578T breast = tested on: HS 578T breast
MDA-MB-231 breast = tested on: MDA-MB-231 breast
UO-31 renal = tested on: UO-31 renal
OVCAR-8 ovarian = tested on: OVCAR-8 ovarian
RPMI-8226 leukemia = tested on: RPMI-8226 leukemia
SNB-75 CNS = tested on: SNB-75 CNS

CNc1cccc(-c2cc(=O)c3cc4c(cc3[nH]2)OCO4)c1
TGI (SK-MEL-28 melanoma): > 100 µM
TGI (MOLT-4 leukemia): > 20.9 µM
TGI (HL-60(TB) leukemia): 2.89 µM
TGI (OVCAR-5 ovarian): 97.8 µM
TGI (NCI/ADR-RES ovarian): 0.568 µM
TGI (SN12C renal): > 42.8 µM
TGI (BT-549 breast): > 100 µM
TGI (CCRF-CEM leukemia): 11 µM
TGI (SF-268 CNS): > 100 µM
TGI (NCI-H460 lung): > 100 µM
TGI (K-562 leukemia): > 19 µM
TGI (HS 578T breast): 8.96 µM
TGI (MDA-MB-231 breast): 4.52 µM
TGI (UO-31 renal): > 50.8 µM

O=C(O)[C@@]1(Cc2ccc(O)cc2)C[C@@H]2Cc3ccccc3N2N1
TGI (SK-MEL-28 melanoma): > 100 µM
TGI (MOLT-4 leukemia): > 100 µM
TGI (OVCAR-8 ovarian): > 100 µM
TGI (HL-60(TB) leukemia): > 100 µM
TGI (OVCAR-5 ovarian): > 100 µM
TGI (NCI/ADR-RES ovarian): > 100 µM
TGI (SN12C renal): > 100 µM
TGI (BT-549 breast): > 100 µM
TGI (CCRF-CEM leukemia): > 100 µM
TGI (SF-268 CNS): > 100 µM
TGI (RPMI-8226 leukemia): > 100 µM
TGI (HS 578T breast): > 100 µM
TGI (MDA-MB-231 breast): > 100 µM
TGI (UO-31 renal): > 100 µM

CCOC(=O)C(=O)N=Nc1c(O)[nH]c2ccccc12
TGI (SK-MEL-28 melanoma): > 100 µM
TGI (MOLT-4 leukemia): > 100 µM
TGI (OVCAR-8 ovarian): > 100 µM
TGI (OVCAR-5 ovarian): > 100 µM
TGI (NCI/ADR-RES ovarian): > 100 µM
TGI (SN12C renal): > 100 µM
TGI (BT-549 breast): > 100 µM
TGI (CCRF-CEM leukemia): > 100 µM
TGI (SF-268 CNS): > 100 µM
TGI (RPMI-8226 leukemia): > 100 µM
TGI (NCI-H460 lung): > 100 µM
TGI (K-562 leukemia): > 100 µM
TGI (SNB-75 CNS): > 100 µM
TGI (MDA-MB-231 breast): > 100 µM
TGI (UO-31 renal): > 100 µM

CNC(=O)Nn1c(SC)nc2ccccc21
TGI (SK-MEL-28 melanoma): > 100 µM
TGI (MOLT-4 leukemia): > 100 µM
TGI (OVCAR-8 ovarian): > 100 µM
TGI (HL-60(TB) leukemia): > 100 µM
TGI (OVCAR-5 ovarian): > 100 µM
TGI (NCI/ADR-RES ovarian): > 100 µM
TGI (SN12C renal): > 100 µM
TGI (BT-549 breast): > 100 µM
TGI (CCRF-CEM leukemia): > 100 µM
TGI (SF-268 CNS): > 100 µM
TGI (RPMI-8226 leukemia): > 100 µM
TGI (NCI-H460 lung): > 100 µM
TGI (K-562 leukemia): > 100 µM
TGI (HS 578T breast): > 100 µM
TGI (MDA-MB-231 breast): > 100 µM
TGI (UO-31 renal): > 100 µM

CCCCN(CCCC)C1(c2cc3ccccc3s2)CCCCC1
TGI (SK-MEL-28 melanoma): 34.1 µM
TGI (MOLT-4 leukemia): 28.8 µM
TGI (OVCAR-8 ovarian): 34.4 µM
TGI (HL-60(TB) leukemia): 34.3 µM
TGI (OVCAR-5 ovarian): 32.9 µM
TGI (NCI/ADR-RES ovarian): 34 µM
TGI (SN12C renal): 36.6 µM
TGI (BT-549 breast): 35.1 µM
TGI (CCRF-CEM leukemia): 28.7 µM
TGI (SF-268 CNS): 34 µM
TGI (NCI-H460 lung): 27.9 µM
TGI (K-562 leukemia): 32.9 µM
TGI (SNB-75 CNS): 30.5 µM
TGI (MDA-MB-231 breast): 30.2 µM
TGI (UO-31 renal): 32.9 µM

O=C1NC(=S)NC1C(Cc1ccccc1)c1ccco1 (stereo not given)
TGI (SK-MEL-28 melanoma): > 100 µM
TGI (MOLT-4 leukemia): > 100 µM
TGI (OVCAR-8 ovarian): > 100 µM
TGI (HL-60(TB) leukemia): > 100 µM
TGI (OVCAR-5 ovarian): > 100 µM
TGI (NCI/ADR-RES ovarian): > 100 µM
TGI (SN12C renal): > 100 µM
TGI (CCRF-CEM leukemia): > 100 µM
TGI (SF-268 CNS): > 100 µM
TGI (RPMI-8226 leukemia): > 100 µM
TGI (NCI-H460 lung): > 100 µM
TGI (K-562 leukemia): > 100 µM
TGI (SNB-75 CNS): > 100 µM
TGI (HS 578T breast): > 100 µM
TGI (MDA-MB-231 breast): > 100 µM
TGI (UO-31 renal): > 100 µM

Nc1ccc(-c2nnc(-c3c(Cl)c(Cl)c(Cl)c(Cl)c3-c3nc4ccc(C(=O)c5ccccc5)cc4[nH]3)o2)cc1
TGI (SK-MEL-28 melanoma): > 100 µM
TGI (MOLT-4 leukemia): 66.7 µM
TGI (OVCAR-8 ovarian): > 100 µM
TGI (OVCAR-5 ovarian): 89 µM
TGI (NCI/ADR-RES ovarian): 41 µM
TGI (SN12C renal): 37.7 µM
TGI (BT-549 breast): > 100 µM
TGI (CCRF-CEM leukemia): 70.3 µM
TGI (SF-268 CNS): > 100 µM
TGI (RPMI-8226 leukemia): 31.8 µM
TGI (K-562 leukemia): 31.6 µM
TGI (SNB-75 CNS): 69.2 µM
TGI (HS 578T breast): > 100 µM
TGI (MDA-MB-231 breast): 55.4 µM
TGI (UO-31 renal): > 100 µM
